According to PubChem BioAssay (NCI):
Values joined by “and” are separate entries in the source; they are usually repeats but may differ in a detail not shown here. Equal values may be shown once.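 Growth conditions: 96-well plates. Treatment: test compound, 48 hours, 5 concentrations. Analysis: linear interpolation between bracketing concentrations; unreached endpoints set to highest concentration. GI50 is the concentration that inhibits growth by half. TGI: total growth inhibition.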

Assays:
Experiment in all cases: NCI tumour cell line growth inhibition, 48 h
BT-549 breast = tested on: BT-549 breast
U251 CNS = tested on: U251 CNS
786-0 renal = tested on: 786-0 renal
COLO 205 colon = tested on: COLO 205 colon
HCT-15 colon = tested on: HCT-15 colon
ACHN renal = tested on: ACHN renal
OVCAR-8 ovarian = tested on: OVCAR-8 ovarian
HS 578T breast = tested on: HS 578T breast
IGROV1 ovarian = tested on: IGROV1 ovarian
NCI-H23 lung = tested on: NCI-H23 lung
MOLT-4 leukemia = tested on: MOLT-4 leukemia

| SMILES | TGI (BT-549 breast) | TGI (U251 CNS) [µM] | TGI (786-0 renal) [µM] | TGI (COLO 205 colon) [µM] | TGI (HCT-15 colon) [µM] | TGI (ACHN renal) | TGI (OVCAR-8 ovarian) [µM] | TGI (HS 578T breast) [µM] | TGI (IGROV1 ovarian) [µM] | TGI (NCI-H23 lung) [µM] | TGI (MOLT-4 leukemia) [µM] | GI50 (IGROV1 ovarian) | GI50 (MOLT-4 leukemia) [µM] | GI50 (BT-549 breast) [µM] | GI50 (U251 CNS) [µM] | GI50 (COLO 205 colon) [µM] | GI50 (HCT-15 colon) [µM] | GI50 (ACHN renal) [µM] | GI50 (OVCAR-8 ovarian) [µM] | GI50 (NCI-H23 lung) [µM] |
| --- | --- | --- | --- | --- | --- | --- | --- | --- | --- | --- | --- | --- | --- | --- | --- | --- | --- | --- | --- | --- |
| COc1ccc(N2C(=O)C3c4[nH]c5ccc(F)cc5c4C4CCC(c5ccccc5)CC4C3C2=O)cc1 (stereo not drawn) | 40.7 µM | 27.1 | 12.1 | > 100 | > 100 | 74.1 µM | 50.6 | 31.8 | 56.2 | 44.5 |  |  |  |  |  |  |  |  |  |  |
| NNC(=O)c1nnn(CCc2ccccc2)c1C(=O)NN | > 100 µM | > 100 | > 100 | > 100 | > 100 | > 100 µM | > 100 |  |  | > 100 | > 100 |  |  |  |  |  |  |  |  |  |
| CCOC(=O)CC(=O)Nc1cccc2[nH]cnc12 | > 100 µM | > 100 | > 100 | > 100 | > 100 | > 100 µM | > 100 | > 100 | > 100 | > 100 | > 100 |  |  |  |  |  |  |  |  |  |
| N#Cc1c(-c2ccccc2)[nH]c(=O)n(C2OC(CO)C(O)C(O)C2O)c1=O (stereo not drawn) | > 100 µM | > 100 | > 100 | > 100 | > 100 | > 100 µM | > 100 | > 100 | > 100 | > 100 | > 100 | > 100 µM and 21.3 µM |  |  |  |  |  |  |  |  |
| O=c1[nH]nc(Cc2ccccc2)n1CCO | > 100 µM | > 100 | > 100 | > 100 | > 100 | > 100 µM | > 100 | > 100 | > 100 | > 100 | > 100 |  |  |  |  |  |  |  |  |  |
| C=C1C(=O)O[C@@H]2C=C(C)C3=CC(=O)[C@](C)(C[C@H](OC(=O)/C(C)=C\C)[C@@H]12)O3 | 1.98 µM | 4.85 | 1.54 | 2 | 2.06 | 3 µM | 2.18 | 17.7 | 3.04 | 3.43 | 1.5 |  | 0.353 |  |  |  |  |  |  |  |
| N#Cc1c(-c2ccccc2)c(N=Nc2ccc(Cl)cc2)c(=O)n2c1[nH]c1ccccc12 | > 100 µM | > 100 | 73.2 | > 100 | > 100 | > 100 µM | > 100 |  | > 100 | > 100 |  |  |  |  |  |  |  |  |  |  |
| O=C1CCCCCCCCCCC1CN1CCCCC1 (stereo not drawn) |  | > 100 | > 100 | > 100 | > 100 | > 100 µM | > 100 |  | > 100 | > 100 | > 100 |  |  |  |  |  |  |  |  |  |
| CC(C)(C)C(=O)OC12/C(=N/O)CCCCCC1c1ccccc12 (stereo not drawn) |  | 33.1 | 31 | 31.3 | 33 | 31.8 µM | 33.4 |  | 29.6 | 31.3 | 34.4 |  |  |  |  |  |  |  |  |  |
| Clc1ccc(C(SCc2ccccc2)SCc2ccccc2)cc1 |  | > 10 | > 10 | > 10 | > 10 | > 10 µM | > 10 | > 10 | > 10 | > 10 | > 10 |  |  |  |  |  |  |  |  |  |
| CCOC(=O)c1sc2[n+](c1C)C(=O)/C(=C/c1ccc([N+](=O)[O-])cc1)S2 |  | 40.3 | 56.8 | 68.7 |  | > 100 µM | 69.9 | 67 |  | 48.4 | 53.5 |  |  |  |  |  |  |  |  |  |
| FC(F)(F)c1cccc(-c2nc3ccccc3c3c2[C@@]2(N4CCCC4)CCCC[C@@H]32)c1 |  | 71.4 | > 100 | 30.4 |  |  |  | > 100 | 37.4 | > 100 | > 100 |  |  |  |  |  |  |  |  |  |
| Cc1cc(=O)oc2c(C)c(OCCCOc3ccc4c(C)cc(=O)oc4c3C)ccc12 |  | > 100 | > 100 |  | > 100 |  | > 100 |  | > 100 | > 100 | > 100 |  |  |  |  |  |  |  |  |  |
| CC(=O)OC[C@@H](OC(C)=O)[C@H](OC(C)=O)[C@@H]1OC(C)(C)O[C@@H]1C1SCCCS1 | > 100 µM | > 100 | > 100 | > 100 |  | > 100 µM | > 100 | > 100 |  | > 100 | > 100 |  |  |  |  |  |  |  |  |  |
| O=[N+]([O-])c1cc2c(cc1/C=N/n1c(CO)nc3ccccc31)OCO2 | > 100 µM | > 100 | > 100 | > 100 | > 100 | > 100 µM | > 100 | > 100 |  | > 100 | > 100 |  |  |  |  |  |  |  |  |  |
| O=CC12C3CCC1C2C(=O)C3 (stereo not drawn) | > 100 µM | > 100 | > 100 | > 100 | > 100 | > 100 µM | > 100 |  | > 100 | > 100 | > 100 |  |  |  |  |  |  |  |  |  |

| SMILES | TGI (BT-549 breast) | TGI (U251 CNS) [µM] | TGI (786-0 renal) [µM] | TGI (COLO 205 colon) [µM] | TGI (HCT-15 colon) [µM] | TGI (ACHN renal) | TGI (OVCAR-8 ovarian) [µM] | TGI (HS 578T breast) [µM] | TGI (IGROV1 ovarian) [µM] | TGI (NCI-H23 lung) [µM] | TGI (MOLT-4 leukemia) [µM] | GI50 (IGROV1 ovarian) | GI50 (MOLT-4 leukemia) [µM] | GI50 (BT-549 breast) [µM] | GI50 (U251 CNS) [µM] | GI50 (COLO 205 colon) [µM] | GI50 (HCT-15 colon) [µM] | GI50 (ACHN renal) [µM] | GI50 (OVCAR-8 ovarian) [µM] | GI50 (NCI-H23 lung) [µM] |
| --- | --- | --- | --- | --- | --- | --- | --- | --- | --- | --- | --- | --- | --- | --- | --- | --- | --- | --- | --- | --- |
| COc1cc2c(cc1OC)C1(COc3cc(O)c(O)c(O)c3C1=O)C2 (stereo not drawn) |  | > 50 | > 50 | > 50 | > 50 | > 50 µM | > 50 | > 50 | > 50 | > 50 | > 50 |  |  |  |  |  |  |  |  |  |
| O=C(Cc1ccccc1)Nn1c(-c2ccccc2)nc2ccccc2c1=O | > 100 µM | > 100 | > 100 | > 100 |  | > 100 µM | > 100 | > 100 | > 100 | > 100 | > 100 |  |  |  |  |  |  |  |  |  |
| Oc1ccc(Cl)cc1CN1CCN(Cc2cc(Cl)ccc2O)C1 |  | 15 | 5.93 | 5.15 |  | 4.25 µM | 2.21 | 8.99 | 6.47 | 5.53 | 12 |  |  |  |  |  |  |  |  |  |
| Cc1cc(S(=O)(=O)Nc2nc(N)nc(N(C)C)n2)c(SCC(=O)O)cc1Cl | > 10 µM | > 10 | > 10 | > 10 | > 10 | > 10 µM | > 10 |  | > 10 | > 10 | > 10 |  |  |  |  |  |  |  |  |  |
| FC1C2=C(SC1(F)F)C1CCC2C1 (stereo not drawn) | > 100 µM |  | > 100 | > 100 | > 100 | > 100 µM | > 100 | > 100 | > 100 | > 100 | > 100 |  |  |  |  |  |  |  |  |  |
| O=C1CC(c2cccc(Br)c2)n2cccc21 (stereo not drawn) |  | > 100 | > 100 | > 100 | > 100 | > 100 µM | > 100 | > 100 | > 100 | > 100 | > 100 |  |  |  |  |  |  |  |  |  |
| CC1=C(C(=O)c2ccccc2)C23C(=O)N(c4ccccc4)C(=O)C2=C(O)C=CC3(O)N1 (stereo not drawn) | 49.2 µM | 81.5 | > 100 | > 100 | > 100 | 40.4 µM | 98.9 | > 100 | 51.9 | > 100 |  |  |  |  |  |  |  |  |  |  |
| C=C1C(=O)O[C@H]2[C@@H](O)[C@H](C)CCC[C@]3(C)O[C@H]3CC[C@@]3(C)O[C@@H]3C[C@@H]12 | 4.5 µM | 15.7 | 12.5 | 10.3 | 4.74 |  | 13.4 | 42 | 12.1 | 13 | 7.15 |  |  |  |  |  |  |  |  |  |
| CCCCCCCCCCC1OC([C@@H](O)CC[C@H](O)C2CC[C@@H](CCCCCCCC(O)CC3=CC(C)OC3=O)O2)CCC1O (stereo partly drawn) | 7.53 µM and > 25 µM | > 25 | > 25 | > 19.8 | > 25 | 8.79 µM and > 25 µM | > 25 |  | > 25 | > 25 | > 13.9 | 10.6 µM | 2.76 | 2.34 | 4 | 5.47 | 7.58 | 1.62 | 9.96 | 1.35 |
| CC(C)C1=CC23CCC4C(C)(C(=O)O)CCCC4(C)C2CC1C1C(=O)N(c2ccccc2)C(=O)C13 (stereo not drawn) |  | > 100 | > 100 | 52.3 | > 100 | > 100 µM | > 100 |  | > 100 | > 100 | > 100 |  |  |  |  |  |  |  |  |  |
| O=C(N/N=C(/COc1ccc([N+](=O)[O-])cc1)N=Cc1ccncc1)c1ccncc1 | > 100 µM | > 100 | > 100 | > 100 | > 100 | > 100 µM | > 100 |  | > 100 | > 100 | > 100 |  |  |  |  |  |  |  |  |  |
| COc1cc2cc(C(=O)N3CC(CCl)c4c3cc(N)c3ccccc43)[nH]c2c(OC)c1OC (stereo not drawn) |  | 0.0998 | 0.0102 | < 0.01 | 1.58 | 0.108 µM | < 0.01 |  | 0.0401 | < 0.01 | < 0.01 |  |  |  |  |  |  |  |  |  |
| O=C(NCc1cccc2ccccc12)N/N=C\c1ccc(Cl)cc1 | > 100 µM | > 100 | > 100 | > 100 | > 100 | > 100 µM | > 100 |  | > 100 | > 100 | > 100 |  |  |  |  |  |  |  |  |  |
| O=C1OC(=O)c2cc(S(=O)(=O)c3ccc4c(c3)C(=O)OC4=O)ccc21 | > 100 µM | > 100 | > 100 | > 100 | > 100 | > 100 µM | > 100 | > 100 | > 100 | > 100 |  |  |  |  |  |  |  |  |  |  |
| Cc1ccc2nc(-c3ccc(N4C(=O)C(Cl)C4c4ccc(Cl)cc4)cc3)sc2c1 (stereo not drawn) | > 100 µM | 42.4 | 56.9 | 27.8 | 81.5 | 50.7 µM | 81.1 | 66.8 |  | 53.7 |  |  |  |  |  |  |  |  |  |  |
